Molecules are shown by their SMILES. Inconclusive results are not listed. Active and inactive are the calls of the source.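 How the source made its calls: active means Compounds that reduce signal, with fitted half-maximal dose at or under twice the top valid tested dose; inconclusive means Poor fit, or flat curve losing 30 to 70% of signal; inactive means Potency past limit, flat within 30%, or opposite direction.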

A short description of the first test: viability loss in HEK293T cells – cell-based, ATP luminescence, cherry-pick samples, cytotoxicity control, dose response (AID 687005). The note with it: HEK293T viability, ATP luminescence (CellTiter-Glo), 48 h; at 18 µM (top of the series).
As to `CN1CCN(C(=O)CN(c2ccc(I)cc2)S(=O)(=O)c2ccccc2)CC1`, the activity change, negative = cytotoxicity is 45.2% (inactive).

The same test, now with this note: HEK293T viability, ATP luminescence (CellTiter-Glo), 48 h; at 23.5 µM (top of the series).
With `C[C@@H]1CCCCO[C@@H](CN(C)CC2CCCCC2)[C@@H](C)CN([C@@H](C)CO)C(=O)c2cc(NS(=O)(=O)c3ccccc3)ccc2O1`, the activity change, negative = cytotoxicity was -40.3% (inactive).
Turning to `COc1ccc(CN(C)C[C@@H]2Oc3ccc(NC(=O)C4CC4)cc3C(=O)N([C@@H](C)CO)C[C@H]2C)cc1`, the activity change, negative = cytotoxicity is 8.64% (inactive).
The same measure, in the same setting: the same measure for `CN1C(=O)c2cc(NS(C)(=O)=O)ccc2OC[C@@H]2O[C@@H](CC(=O)O)CC[C@@H]21`: -2.71% (inactive); for `CN1c2ccc(-c3ccc(F)cc3)cc2[C@H]2[C@H](CCN2S(=O)(=O)c2cccc(F)c2)[C@H]1CO`: -32.1% (inactive).

The test is the same for the next values; noted with them: HEK293T viability, ATP luminescence (CellTiter-Glo), 48 h; at 26 µM (top of the series).
`CC(=O)c1ccc(OCC(=O)NCc2ccc(F)cc2)cc1`: the activity change, negative = cytotoxicity is 11% (inactive).
Same read-out and setting: the same measure for `CCC(=O)Nc1ccc2c(c1)OC[C@H](C)N(C(=O)c1ccc(F)cc1)C[C@@H](C)[C@@H](OC)CN(C)C2=O`: 62.2% (inactive).
The same measure, in the same setting: the result for `C[C@H]1CN([C@@H](C)CO)C(=O)c2cc(-c3ccccc3)cnc2O[C@@H]1CN(C)C(=O)c1ccccn1` reads 19% (inactive); that for `O=C(NC1CCCCC1)N[C@H]1C=C[C@@H](CC(=O)N2CCOCC2)O[C@@H]1CO`, 17.4% (inactive).
On the same count and under the same terms, the result for `O=C(NCC[C@H]1CC[C@H](NS(=O)(=O)c2ccc(F)cc2)[C@@H](CO)O1)c1ccc2c(c1)OCO2` reads -2.6% (inactive).
`CNC[C@@H]1Oc2ccc(NS(=O)(=O)c3ccc(Cl)cc3)cc2C(=O)N([C@H](C)CO)C[C@H]1C`: the activity change, negative = cytotoxicity is 45.6% (inactive).
Still for that read-out and setting: the result for `CO[C@H]1CN(C)C(=O)c2ccc(NC(=O)NC(C)C)cc2OC[C@@H](C)NC[C@H]1C` reads -16.2% (inactive).
On the same count and under the same terms, the result for `C[C@@H]1CCCCO[C@@H](CN(C)C(=O)NC2CCCCC2)[C@H](C)CN([C@@H](C)CO)C(=O)c2cc(NS(=O)(=O)c3cn(C)cn3)ccc2O1` reads 36.8% (inactive); that for `C[C@H](CO)N1C[C@H](C)[C@H](CN(C)C(=O)Nc2cccc3ccccc23)Oc2ccc(NC(=O)Nc3ccccc3)cc2C1=O`, 2.5% (inactive); that for `C[C@H](CO)N1C[C@H](C)[C@H](CN(C)S(=O)(=O)c2ccccc2)Oc2ccc(NS(=O)(=O)c3ccc(F)cc3)cc2C1=O`, -25.5% (inactive).
Same read-out and setting: the result for `C[C@@H]1CN([C@@H](C)CO)C(=O)c2cc(NC(=O)C3CCCCC3)ccc2O[C@@H](C)CCCCO[C@@H]1CN(C)C(=O)NC1CCCCC1` reads 8.91% (inactive).
Turning to `COCC(=O)Nc1ccc2c(c1)C(=O)N(C)C[C@@H](OC)[C@H](C)CN(Cc1ccccc1)[C@@H](C)CO2`, the activity change, negative = cytotoxicity is 7.91% (inactive).
Still for that read-out and setting: the same measure for `Cc1cc(C)c(NC(=O)C2CCCN2CCO)c(C)c1` (centres undefined): -10.1% (inactive).
Turning to `CCNC(=O)CN(c1ccccc1)S(=O)(=O)c1ccc(Cl)cc1`, the activity change, negative = cytotoxicity was -16.3% (inactive).
Regarding `C[C@@H]1CN([C@@H](C)CO)C(=O)c2cc(-c3ccc(C#N)cc3)cnc2O[C@@H]1CN(C)C(=O)Nc1ccc(F)cc1`, the activity change, negative = cytotoxicity is 5.67% (inactive).
On the same count and under the same terms, the same measure for `COc1ccc(S(=O)(=O)Nc2ccc3c(c2)C(=O)N([C@H](C)CO)C[C@H](C)[C@H](CN(C)C(=O)Nc2ccccc2)O3)cc1`: -2.82% (inactive).
On to `O=C(C[C@@H]1CC[C@@H]2[C@H](COC[C@H](O)CN2Cc2cccc(C(F)(F)F)c2)O1)NCc1ccccc1`, for which the activity change, negative = cytotoxicity is 4.02% (inactive).
Same read-out and setting: the same measure for `O=C1CCC(C(=O)Nc2ccc(Cl)cc2)N1` (centres undefined): 11% (inactive).
For `CNC[C@@H]1OCCCC[C@H](C)Oc2ccc(NC(=O)Nc3ccc(F)cc3)cc2C(=O)N([C@@H](C)CO)C[C@H]1C`, the activity change, negative = cytotoxicity is 28.7% (inactive).
In the case of `C[C@@H]1CN([C@@H](C)CO)C(=O)Cc2cc(NC(=O)Nc3cccc4ccccc34)ccc2O[C@@H]1CN(C)S(=O)(=O)c1cccs1`, the activity change, negative = cytotoxicity was 153% (inactive).
Same read-out and setting: the result for `C[C@@H]1CCCCO[C@@H](CN(C)C(=O)Nc2cccc3ccccc23)[C@@H](C)CN([C@H](C)CO)C(=O)c2cc(NS(=O)(=O)c3ccccc3)ccc2O1` reads 6.51% (inactive); that for `Cc1ccccc1OCC(=O)NCc1ccccc1`, 2.49% (inactive).
The same measure, in the same setting: the result for `CO[C@H]1CC[C@@H]2CCOc3c(C#N)cccc3C(=O)N(C)C[C@H](OC)[C@@H](C)C(=O)N(C)C[C@@H]1O2` reads -0.939% (inactive); that for `CCC(=O)N[C@H]1C=C[C@H](CC(=O)NCC2CCCCC2)O[C@@H]1CO`, 35.4% (inactive).
Turning to `CC=Cc1ccc2n(c1=O)C[C@H]1[C@H](CO)[C@@H](C(=O)NCc3ccc4c(c3)OCO4)[C@@H]2N1C(=O)C1CC1` (mixture of isomers), the activity change, negative = cytotoxicity was -15.5% (inactive).
On the same count and under the same terms, the result for `C[C@H]1CN([C@@H](C)CO)C(=O)c2cc(NC(=O)Nc3cccc4ccccc34)ccc2O[C@@H]1CN(C)C(=O)Nc1ccc(C(F)(F)F)cc1` reads 1.29% (inactive); that for `C[C@H](CO)N1C[C@H](C)[C@@H](CN(C)C(=O)Nc2ccc3c(c2)OCO3)Oc2ccc(NS(=O)(=O)c3cccs3)cc2C1=O`, -1.88% (inactive); that for `Cc1noc(C)c1S(=O)(=O)Nc1ccc2c(c1)CC(=O)N([C@@H](C)CO)C[C@H](C)[C@@H](CN(C)S(=O)(=O)c1cn(C)cn1)O2`, 50.4% (inactive).
On the same count and under the same terms, the same measure for `CCCC(=O)Nc1ccc2c(c1)C(=O)N(C)C[C@H](OC)[C@@H](C)CN(C(=O)c1cccnc1)[C@@H](C)CO2`: 4.75% (inactive); for `O=C(Nc1cccc(F)c1)N[C@H]1CC[C@@H](CCNS(=O)(=O)c2cccc(Cl)c2)O[C@@H]1CO`: -36.3% (inactive); for `CCc1ccc(C(C)NC(=S)NCc2ccc(F)cc2)cc1` (centres undefined): 17.2% (inactive).
On to `COC(=O)C1=C(C)N(Cc2ccccc2)C(=S)N[C@H]1c1cccc(C(F)(F)F)c1`, for which the activity change, negative = cytotoxicity was -25.6% (inactive).
On the same count and under the same terms, the result for `CC(C)c1ccc(S(=O)(=O)N2CCN(CC(=O)Nc3ccc4c(c3)OCO4)CC2)cc1` reads -0.379% (inactive).
Consider `COc1ccc(N(CC(=O)NCCSCc2ccc(C)cc2)S(=O)(=O)c2ccccc2)cc1`, for which the activity change, negative = cytotoxicity was -65.3% (inactive).
On the same count and under the same terms, the result for `Cc1ccc(S(=O)(=O)N[C@H]2CC[C@H](CC(=O)NCc3ccccc3F)O[C@H]2CO)cc1` reads 8.09% (inactive); that for `CCC(C)(C(=O)NC1CCCC1)N(C(C)=O)c1ccc(C)cc1` (centres undefined), 9.31% (inactive).
On to `C[C@H](CO)N1C[C@H](C)[C@@H](CN(C)Cc2ccncc2)OCCCC[C@H](C)Oc2ccc(NC(=O)NC3CCCCC3)cc2C1=O`, for which the activity change, negative = cytotoxicity was -0.008% (inactive).
On the same count and under the same terms, the result for `O=C(c1cc(Br)ccc1Cl)N1CCN(c2ccccn2)CC1` reads -6.43% (inactive); that for `CCC(=O)N[C@H]1C=C[C@@H](CC(=O)OC)O[C@@H]1CO`, -29.7% (inactive); that for `COCCNC(=O)C[C@H]1CC[C@@H]2[C@H](COC[C@H](O)CN2S(=O)(=O)c2ccccc2C)O1`, 15.9% (inactive).
Same read-out and setting: the same measure for `COc1ccc(CN(C)C[C@@H]2OCCCC[C@@H](C)Oc3ccc(NC(=O)c4ccccc4)cc3C(=O)N([C@H](C)CO)C[C@@H]2C)cc1`: -11.1% (inactive).
The same measure, in the same setting: the same measure for `CC(C)NC(=O)N(C)C[C@@H]1OCCCC[C@@H](C)Oc2ccc(NC(=O)c3ccccc3)cc2C(=O)N([C@H](C)CO)C[C@@H]1C`: -7.94% (inactive); for `CO[C@@H]1CC[C@@H]2CCOc3c(C#N)cccc3C(=O)N(C)C[C@H](c3ccccc3)CC(=O)N(C)C[C@@H]1O2`: -28.5% (inactive).
In the case of `COC(=O)C1=C(C)N(Cc2ccc(F)cc2)C(=S)NC1c1cccc(OC)c1` (centres undefined), the activity change, negative = cytotoxicity was 4.8% (inactive).
On the same count and under the same terms, the same measure for `Cc1cc(C(=O)Nc2ccc3c(c2)C(=O)N(C)[C@@H]2CC[C@@H](CC(=O)N[C@@H](C)c4ccccc4)O[C@@H]2CO3)no1`: -33.4% (inactive); for `COc1ccc(NC(=O)N(C)C[C@H]2OCCCC[C@@H](C)Oc3ccc(NC(=O)c4ccccc4)cc3C(=O)N([C@H](C)CO)C[C@H]2C)cc1`: -27.5% (inactive); for `C[C@H]1CN([C@@H](C)CO)C(=O)c2cc(C#Cc3ccccn3)cnc2O[C@H]1CN(C)Cc1ccncc1`: 38.4% (inactive).
Still for that read-out and setting: the result for `CC=Cc1ccc2n(c1=O)C[C@@H]1[C@@H](CO)[C@H](C(=O)N3CCc4ccccc4C3)N(C(=O)C3CC3)[C@H]21` (mixture of isomers) reads -3.28% (inactive); that for `O=C(COc1ccc2c(c1)CCC2)NCc1ccccc1`, 1.59% (inactive).

The test is the same for the next values; noted with them: HEK293T viability, ATP luminescence (CellTiter-Glo), 48 h; at 28.5 µM (top of the series).
`CNC(=O)CN(c1ccccc1)S(=O)(=O)c1ccc(F)cc1`: the activity change, negative = cytotoxicity was -7.63% (inactive).
On the same count and under the same terms, the result for `COC(=O)C1=C(C)N(Cc2ccc(F)cc2)C(=S)NC1c1ccccc1` (centres undefined) reads 17.5% (inactive).

The same test, now with this note: HEK293T viability, ATP luminescence (CellTiter-Glo), 48 h; at 42 µM (top of the series).
In the case of `CCCC(=O)N1CCCC1(C)C(=O)Nc1ccc(C)c(C)c1` (centres undefined), the activity change, negative = cytotoxicity was -11.7% (inactive).
Same read-out and setting: the result for `CCC(=O)N1CCCC1(C)C(=O)Nc1ccc(C)c(C)c1` (centres undefined) reads -1.9% (inactive).

The test is the same for the next values; noted with them: HEK293T viability, ATP luminescence (CellTiter-Glo), 48 h; at 50 µM (top of the series).
In the case of `Cc1ccc(OCC(=O)NCc2ccccc2)cc1`, the activity change, negative = cytotoxicity is 29% (inactive).

The values above are taken from PubChem BioAssay AID687005 (Broad Institute, 2013).
